Test results from the supplement of paper PMC8967900.

Legend:
Assay in all cases: selective drug sensitivity score (sDSS, relative to normal bone marrow) (sDSS (score)); higher = more potent and effective on the cell line relative to normal bone marrow cells
Conditions in all cases: 72 h
380 = test system: 380
697 = test system: 697
ALL-SIL = test system: ALL-SIL
CCRF-CEM = test system: CCRF-CEM
COG-LL-319h = test system: COG-LL-319h
COG-LL-332h = test system: COG-LL-332h
HAL-01 = test system: HAL-01
HPB-ALL = test system: HPB-ALL
JURKAT = test system: JURKAT
KARPAS-45 = test system: KARPAS-45
KASUMI-10 = test system: KASUMI-10
KASUMI-2 = test system: KASUMI-2
KOPN-8 = test system: KOPN-8
MHH-CALL-2 = test system: MHH-CALL-2
MHH-CALL-4 = test system: MHH-CALL-4
MOLT-14 = test system: MOLT-14
NALL-1 = test system: NALL-1
NALM-6 = test system: NALM-6
P12-ICHIKAWA = test system: P12-ICHIKAWA
PF-382 = test system: PF-382
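Further: ALL cell lines in 384-well plates, five doses spanning 10,000-fold, each plate scaled between vehicle and 100 µmol/L benzalkonium chloride controls, sDSS an adapted area-under-curve metric.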

SMILES	selective drug sensitivity score 380	selective drug sensitivity score 697	selective drug sensitivity score (ALL-SIL)	selective drug sensitivity score (CCRF-CEM)	selective drug sensitivity score (COG-LL-319h)	selective drug sensitivity score (COG-LL-332h)	selective drug sensitivity score (HAL-01)	selective drug sensitivity score (HPB-ALL)	selective drug sensitivity score (JURKAT)	selective drug sensitivity score (KARPAS-45)	selective drug sensitivity score (KASUMI-10)	selective drug sensitivity score (KASUMI-2)	selective drug sensitivity score (KOPN-8)	selective drug sensitivity score (MHH-CALL-2)	selective drug sensitivity score (MHH-CALL-4)	selective drug sensitivity score (MOLT-14)	selective drug sensitivity score (NALL-1)	selective drug sensitivity score (NALM-6)	selective drug sensitivity score (P12-ICHIKAWA)	selective drug sensitivity score (PF-382)
COc1cc2ncnc(Oc3cccc(NC(=O)Nc4cc(C(C)(C)C(F)(F)F)on4)c3)c2cc1OC (top concentration 10000 nM)	0	10.4	41.3	0.1	12.3	18.4	3.4	0	0	3.2	10.8	5.2	16.7	4.2	3.4	0.8	0.3	0	5.9	1.2
S=C(NCc1ccc2c(c1)OCO2)N1CCN(c2ncnc3c2oc2ccccc23)CC1 [Amuvatinib] (top concentration 10000 nM)	3.76	7.86	6.66	1.56	5.96	2.96	2.96	2.66	11.1	5.06	-1.44	10.8	8.76	3.66	2.16	3.56	2.16	3.86	7.46	5.06
O=C(c1ccc(F)c(F)c1Nc1ccc(I)cc1F)N1CC(O)([C@@H]2CCCCN2)C1 [Cobimetinib] (top concentration 1000 nM)	0.82	-2.58	-2.98	-3.58	-1.28	-3.08	0.32	-3.68	-3.68	-3.68	-3.68	4.22	2.12	0.42	2.62	5.22	-1.88	2.62	-1.88	-3.28
NC(=O)Nc1cc(-c2cccc(F)c2)sc1C(=O)N[C@H]1CCCNC1 [AZD7762] (top concentration 1000 nM)	1	2.6	0	-0.1	2.8	-0.8	3.5	-1.5	-0.7	1.8	12.9	-4.2	3.4	5.1	0.3	0.6	-2.1	0.6	-0.5	-0.5
Cc1ccc(NC(=O)c2ccc(CN3CCN(C)CC3)cc2)cc1Nc1nccc(-c2cccnc2)n1 [Imatinib] (top concentration 10000 nM)	-0.44	1.06	24.9	-0.44	0.06	10.2	-0.44	1.06	0.66	1.96	-0.44	-0.44	-0.04	0.16	-0.44	0.46	-0.44	-0.44	0.16	-0.24
Nc1nc2[nH]cc(CCc3ccc(C(=O)N[C@@H](CCC(=O)O)C(=O)O)cc3)c2c(=O)[nH]1 [Pemetrexed] (top concentration 10000 nM)	22.6	28.3	15.5	23.6	27.3	21.9	20.8	9.98	15.6	9.98	19.1	19.3	30.2	18.7	15.2	20.2	12.2	24.5	26.1	12.1
CO[C@H]1CC[C@H](N2C(=O)CNc3ncc(-c4ccc(C(C)(C)O)nc4)nc32)CC1 [CC-223] (top concentration 10000 nM)	13	5.02	1.32	4.42	5.12	1.92	6.32	-0.28	0.02	2.22	-1.38	7.92	8.12	6.42	1.52	0.62	5.52	1.42	1.92	1.42
CC(=O)N(O)CCCCCNC(=O)CCC(=O)N(O)CCCCCNC(=O)CCC(=O)N(O)CCCCCN [Deferoxamine] (top concentration 10000 nM)	1.96	6.26	3.56	6.86	7.86	10.4	8.46	4.06	2.26	5.16	3.06	-0.74	10.4	7.66	-0.84	8.76	-0.74	5.06	3.66	4.66
CC(C)C[C@@H](C(=O)N[C@H](C(=O)OC1CCCC1)c1ccccc1)[C@H](O)C(=O)NO [Tosedostat] (top concentration 10000 nM)	5.76	-1.54	1.06	4.36	3.96	2.26	-3.84	-4.94	2.16	8.66	7.06	-5.44	10.8	5.76	1.26	6.46	0.86	-1.04	-0.24	5.66
C[C@H](Nc1ncnc2[nH]cnc12)c1cc2ccc(F)cc2nc1-c1ccccn1 [AMG319] (top concentration 1000 nM)	-1.02	0.18	-1.42	-1.42	10.1	-1.42	10.4	-1.42	-1.42	-0.22	-1.42	7.58	6.38	-1.42	0.68	-1.42	-1.42	3.68	-1.42	-1.42
C1=N/C2=N/c3ccc(OCCN4CCCC4)c(c3)COC/C=C/COCc3cccc(c3)C(=C1)N2 [Pacritinib] (top concentration 10000 nM)	-8.7	-2.6	-3.6	-6.1	0	-4.1	-0.6	-5.7	-8	-2.9	2.2	-2.3	-4.7	-7.9	-5.3	-4	-8.4	-2.3	-7.3	-7.5
COc1c(OCCCN2CCOCC2)ccc2c1N=C(NC(=O)c1cnc(N)nc1)N1CCN=C21 [Copanlisib] (top concentration 1000 nM)	14.4	3.48	0.38	10.2	3.18	2.78	12.1	0.48	-3.62	3.38	-1.32	4.18	4.98	6.18	9.28	-3.92	-0.62	8.18	-0.42	2.58
Cc1ccc(C(=O)Nc2ccc(CN3CCN(C)CC3)c(C(F)(F)F)c2)cc1C#Cc1cnc2cccnn12 [Ponatinib] (top concentration 1000 nM)	9.52	6.62	41.7	1.82	10.3	17.6	8.42	-2.18	1.42	5.02	16	-1.78	27.1	5.92	4.72	7.42	-3.08	0.82	1.22	6.62
Cc1cccc(-c2[nH]c(CNc3ccccc3F)nc2-c2ccc3ncnn3c2)n1 [Vactosertib (TEW-7197)] (top concentration 2500 nM)	0.8	-0.5	-0.5	-0.5	7.2	-0.2	0	-0.5	0	-0.5	-0.5	-0.5	-0.5	-0.3	7.2	0.8	-0.4	-0.5	-0.5	-0.5
CNC(=O)c1ccccc1Sc1ccc2c(/C=C/c3ccccn3)n[nH]c2c1 [Axitinib] (top concentration 10000 nM)	1.56	14.7	20.1	9.26	7.96	13.3	-0.94	7.56	5.06	6.36	1.86	6.56	6.06	-0.34	-2.44	8.56	5.56	7.86	12.1	6.96
CN(C)Cc1c(C(=O)NCCOc2ccc(C(=O)NO)cc2)oc2ccccc12 [Abexinostat] (top concentration 10000 nM)	7.56	6.96	6.76	4.56	8.36	0.36	-0.44	6.76	1.66	10.6	6.06	8.66	9.26	9.06	6.36	7.36	1.06	2.76	4.66	2.86
CC(C)NC[C@@H](C(=O)N1CCN(c2ncnc3c2[C@H](C)C[C@H]3O)CC1)c1ccc(Cl)cc1 [Ipatasertib] (top concentration 10000 nM)	7	2.9	2.9	10.7	2.4	5.8	1.8	0.9	7.1	5.2	0.7	7.9	4.3	4.7	4.5	-1.8	1.8	6.2	2.9	4.2
